“And” between values parts separate entries of the source, which are not always exact repeats. Equal values may be shown once. Read-outs that look alike come from different tables or passages of the source.
Tests used:
Huh-Luc-Neo cells = test: Cell Titer-Glo Cell Viability Assay; format: cell-based, human; conditions: for Toxicity % Inhibition at 50 μM (2 doses): inhibition of cell viability at 50 μM, conditions identical to HCV Replicon RNA Assay; for Toxicity % Inhibition at 100 μM (1 dose): inhibition of cell viability at 100 μM, conditions identical to HCV Replicon Luciferase Assay (48 h)
Protocol: (§1) Day 2, Reagent Preparation and Luciferase Assay: The Bright-Glo Luciferase Assay Buffer (Promega) is thawed and equilibrated to room temperature prior to use. The lyophilized Bright-Glo Luciferase Assay Substrate is equilibrated to room temperature prior to use. 10 ml of Bright-Glo Luciferase Assay Buffer is transferred to 1 vial of Bright-Glo Luciferase Assay Substrate bottle and mixed by gently with a Vortex. 100 ul of Bright-Glo Luciferase Assay reagent (Bright-Glo Luciferase Assay Buffer+Bright-Glo Luciferase Assay Substrate Mixture) is added to each well. The well contents are mixed for 5 min. on an orbital shaker at room temperature to induce cell lysis and the luminescence is then measured using a luminometer. The data is analyzed and IC50s are determined using GraphPad Prism 4 software. Hits validated in the Replicon Luciferase assay have IC50s<8.0 μM and show <30% inhibition of Cell Viability at a compound concentration of 100 μM (Cell Titer Glow Assay, cell viability assay conditions identical to HCV Replicon Luciferase Assay conditions).
(§2) Day 3, Quantitative PCR Based Measurement of HCV RNA (Taqman Assay): Quantitative PCR analysis to measure HCV RNA expression from cDNA synthesized on Day 2 is performed using the ABI 9700 HT Sequence Detection System (Applied Biosystems) as previously described (Lohman et al, Science 285, 110-113, 1999). The data is analyzed and IC50s are determined using GraphPad Prism 4 software. Hits validated in the Replicon RNA Assay have IC50s<8.0 μM and show <30% inhibition of Cell Viability at a compound concentration of 50 μM (Cell Titer Glow Assay, cell viability assay conditions identical to HCV Replicon RNA Assay conditions).
Day 0, Cell Seeding and Compound Treatment: Huh-Luc-Neo Cells are seeded at 25,000/well in an opaque-walled 96 plate with Growth Medium (DMEM phenol red free+PS+2 mM glutamine; 100 ul/well).
Day 2, Reagent Preparation and Assay: The CellTiter-Glo Buffer is thawed and equilibrated to room temperature prior to use. The lyophilized CellTiter-Glo Substrate is equilibrated to room temperature prior to use. 10 ml of CellTiter-Glo Buffer is transferred to 1 vial of CellTiter-Glo Substrate and mixed by gently with a Vortex. 100 μl of CellTiter-Glo Assay reagent (CellTiter-Glo Buffer+CellTiter-Glo Substrate Mixture) is added to each well. The well contents are mixed for 5 min. on an orbital shaker at room temperature to induce cell lysis and the luminescence is then measured using a luminometer.

[1] = test system: HCV RNA (HCV Replicon) in Huh-Luc-Neo cells; test: HCV Replicon RNA Assay (Taqman quantitative PCR); format: cell-based; conditions: 2 compound treatments over 48 h, no unit printed in table (b307 gives IC50s in μM)
Protocol: (§3) The identification of inhibitors of HCV replication and/or proliferation has been facilitated by the development of a cell based system to study HCV replication and assay for HCV inhibitors. Inhibition of HCV replication may be performed using the HCV Replicon Assay developed in the laboratories of Bartenschlager (Lohman et al, Science 285, 110-113, 1999) and Rice (Blight et al, Science 290, 1972-1974, 2000). The assay is performed using the Huh-Luc-Neo cell line (Lohman et al, Science 285, 110-113, 1999). Huh-Luc-Neo cells are a human hepatoma cell line (Huh-7) stably expressing a bi-cistronic subgenomic replicon containing the HCV IRES in which the […] of HCV had been deleted and replaced by a construct containing sequences coding for the firefly luciferase reporter gene, the neomycin selectable marker and the EMCV IRES to direct expression of a truncated HCV genome expressing the […] NS3, NS4A, NS4B, NS5A, and NS5B. HCV targets through which inhibitors could act to inhibit replication include the NS3 protease, the helicase/ATPase, NS5A, the NS5B-RNA dependent RNA polymerase, and the HCV IRES.
(§4) Expression of HCV IRES driven luciferase reporter activity and HCV RNA is measured to obtain indirect and direct measures of replication of HCV RNA respectively. Inhibitors of HCV replication and/or proliferation are determined by initially identifying molecules that inhibit expression of the HCV IRES driven luciferase reporter in this HCV Replicon Luciferase Assay. Cell viability assays and control cell based luciferase assays are then run on hits identified in the HCV Replicon Luciferase Assay to eliminate cytoxic compounds and non-specific compounds which act by inhibiting the luciferase enzyme.
(§5) Day 0, Cell Seeding and Compound Treatment: Huh-Luc-Neo Cells are seeded at 25,000/well in an opaque-walled 96 plate with Growth Medium (DMEM phenol red free+PS+2 mM glutamine; 100 μl/well). The compounds to be tested are added to the experimental wells (10 μl/well at 10× assay concentration) and the cells are then incubated (5% CO2, 37° C.).
Day 1, Media Change and Compound Treatment: 24 hours after the initial compound treatment the cell culture media is aspirated from the wells and fresh Growth Medium is added (DMEM phenol red free+PS+2 mM glutamine; 100 μl/well). The compounds to be tested are then added to the appropriate experimental wells (10 μl/well at 10× assay concentration) and the cells are then incubated (5% CO2, 37° C.) for an additional 24 hrs.
Day 2, RNA Isolation and cDNA Synthesis: The cells are washed with 1× Phosphate Buffered Saline (PBS) once.
as §2

[2] = test system: HCV Replicon (HCV IRES driven luciferase reporter) in Huh-Luc-Neo cells; test: HCV Replicon Luciferase Assay; format: cell-based; conditions: 48 h, Huh-Luc-Neo cells, no unit printed in table (b301 gives IC50s in μM), read-out: Luciferase IC50
Protocol: as §3, §4
as §5, with “C.) for 48 h.” for “C.).”
as §1

Compound	Toxicity % Inhibition at 50 μM (2 doses) (Huh-Luc-Neo cells)	Toxicity % Inhibition at 100 μM (1 dose) (Huh-Luc-Neo cells)	IC50 ([1]; Hepatitis C virus, 48 h)	IC50 ([2]; Hepatitis C virus)	IC50 [1]	IC50 [2]
Cc1ccc(O)c(-c2nn(C)cc2C#CC2=CCCCC2)c1 [VQ_23307]	14.8%	44.8%	8.1 µM	7.25 µM		
Cc1ccc(O)c(-c2nn(C)cc2C#CC(C)(C)C)c1 [VQ_23310]	7.1%	33.3%	1.15 µM	7.21 µM		
COc1ccc(C#Cc2cn(C)nc2-c2cc(Cl)ccc2O)cc1 [VQ_23317]	2.1%	10.7%	2.7 µM	4.37 µM		
Cn1cc(C#CC(C)(C)C)c(-c2cc(Cl)ccc2O)n1 [VQ_23322]	1.5%	21.5%	2.47 µM	2 µM		
CCCCCC#Cc1cn(C)nc1-c1cc(Cl)ccc1O [VQ_23324]	8.8%	39.8%	0.03 µM	5.51 µM		
COc1ccc(C#Cc2cn(C)nc2-c2cc(Cl)c(C)cc2O)cc1 [VQ_23374]	13.0%	19.1%	5.7 µM	3.92 µM		
COCC#Cc1cn(C)nc1-c1cc(Cl)c(C)cc1O [VQ_23382]		18.5% and 16.2%	3.03 µM		2.26 µM	
Cn1cc(C#CCC2CCCCC2)c(-c2ccccc2O)n1 [VQ_23705]	14.7%	26.4%	1.1 µM	6.47 µM		
Cn1cc(C#Cc2ccc(N)cc2)c(-c2ccccc2O)n1 [VQ_23708]	21.8%	63.8%	0.7 µM	0.55 µM		
Cc1ccc(O)c(-c2nn(C)cc2C#Cc2ccc(N)cc2)c1 [VQ_23714]	33.4%	31.5%	0.1 µM	1.16 µM		
Cn1cc(C#Cc2ccc(N)cc2)c(-c2cc(Cl)ccc2O)n1 [VQ_23720]	32.6%	49.2%	0.3 µM	1.28 µM		
Cc1cc(O)c(-c2nn(C)cc2C#CCCCC#N)cc1Cl [VQ_24691]	28.3%	21.1%	0.09 µM	5.13 µM		
Cn1nc(-c2ccccc2O)c(C#CCCCC#N)c1-c1ccccc1 [VQ_30716]	6.8%	13.7%	0.11 µM	3.96 µM		
Cn1cc(C#CC(C)(C)C)c(-c2cc([N+](=O)[O-])ccc2OCc2c(F)cccc2F)n1 [VQ_33518]	22.8%	40.4%	0.42 µM	1.85 µM		
Cn1cc(CCC(C)(C)C)c(-c2cc(NC(=O)c3cccc(Cl)c3F)ccc2O)n1 [VQ_34072]	6.2%	4.2%	1.09 µM	2.87 µM		
COc1ccc(O)c(-c2nn(C)cc2C#CC(C)(C)C)c1 [VQ_34145]	13.1%	19.8%	0.82 µM	1.87 µM		
Cn1nc(-c2cc(Br)ccc2O)c(C#CC(C)(C)C)c1C#CCCCC#N [VQ_34298]	23.9%	18.3%	3.86 µM	5.5 µM		
CCCCCCNc1ccc([N+](=O)[O-])cc1-c1nn(C)cc1C#CC(C)(C)C [VQ_36663]	23.8%	15.5%	0.75 µM			
COc1ccc(S(=O)(=O)Nc2ccc([N+](=O)[O-])cc2-c2nn(C)cc2C#CC(C)(C)C)cc1 [VQ_36877]		10.9%		0.2 µM		
Cn1cc(C#CC(C)(C)C)c(-c2cc([N+](=O)[O-])ccc2NCc2ccccc2C#N)n1 [VQ_36885]		35.7%		0.03 µM		
Cn1cc(C#CC(C)(C)C)c(-c2cc([N+](=O)[O-])ccc2NCc2c(Cl)cccc2Cl)n1 [VQ_36886]		12.6%		0.19 µM		
Cn1cc(C#CC(C)(C)C)c(-c2cc([N+](=O)[O-])ccc2NCc2c(F)c(F)cc(F)c2F)n1 [VQ_36887]		18.7%		0.06 µM		
Cn1cc(C#CC(C)(C)C)c(-c2cc([N+](=O)[O-])ccc2NCc2ccc(I)cc2)n1 [VQ_36893]		16.6%		0.09 µM		
Cn1cc(C#CC(C)(C)C)c(-c2cc([N+](=O)[O-])ccc2NCc2c(F)c(F)c(F)c(F)c2F)n1 [VQ_36894]		12.5%		0.12 µM		
Cn1cc(C#CC(C)(C)C)c(-c2cc([N+](=O)[O-])ccc2NCc2cccc3ccccc23)n1 [VQ_36895]		10.4%		0.1 µM		
Cn1cc(C#CC(C)(C)C)c(-c2cc([N+](=O)[O-])ccc2NC(=O)c2cc(C(F)(F)F)ccc2F)n1 [VQ_36905]		10.9%		1.63 µM		
Cn1cc(C#CC(C)(C)C)c(-c2cc([N+](=O)[O-])ccc2NC(=O)c2ccccc2C(F)(F)F)n1 [VQ_36906]		14.0%		2.69 µM		
Cn1cc(C#CC(C)(C)C)c(-c2cc([N+](=O)[O-])ccc2NC(=O)COc2ccccc2)n1 [VQ_36907]		34.7%				0.2 µM
Cn1cc(C#CC(C)(C)C)c(-c2cc([N+](=O)[O-])ccc2NC(=O)COc2ccccc2)n1 [VQ_36908]		22.7%				1.72 µM
